The results in this text go back to article PMC10766962 (Nature Communications, 2024).

Several values for one entry are separate records, joined by “and”; a condition that tells them apart may be missing. Identical values can stand only once. Entries after “also recorded” stand apart in the source; their conditions may differ. Like-named read-outs stand apart in the source and are kept apart here. Positions of bridges follow the written chain, without caps; N, C: chain ends. Non-standard residues stand in square brackets, D forms with d. Residues, ends and D or L forms follow the SMILES beside them. Groups on a side chain read outwards from the residue. *: point of attachment. Acetyl(2-S-cholesteryl) = CC(C)CCC[C@@H](C)[C@H]1CC[C@H]2[C@@H]3CC=C4C[C@@H](SCC(=O)*)CC[C@]4(C)[C@H]3CC[C@]12C; PEG16 = NCCOCCOCCOCCOCCOCCOCCOCCOCCOCCOCCOCCOCCOCCOCCOCCOCCC(=O)O; R8 = C=CCCCCCC[C@@](C)(N)C(=O)O; S5 = C=CCCC[C@](C)(N)C(=O)O

The target in data set [1] is SARS-CoV-2 5-helix bundle (5-HB) protein (Severe acute respiratory syndrome coronavirus 2, UniProt P0DTC2). The data set can be described thus: biochemical. The class given is binding.
Data set [2] is classed as physicochemical.
The test system of data set [3] is SARS-CoV-2 WA-1 (Wuhan) isolate. Also on record: species or system Syrian (Golden) hamsters. The following applies: hamster, in vivo.
For data set [4] the test system is unchanged. Also on record: species or system Syrian (Golden) hamsters. Particulars: hamster, in vivo. The source holds these as a separate data set.
The format of data set [5] is physicochemical. The following applies: pH 7.4.
The format of data set [6] is physicochemical. The following applies: pH 7.5.
Data set [7] concerns SARS-CoV-2 B.1.617.2 pseudovirus.
Data set [8] concerns SARS-CoV-2 B.1.1.529.1 pseudovirus.
Data set [9] deals with SARS-CoV-2 Beta B.1.351 live virus.
Data set [10] relates to SARS-CoV-2 Delta B.1.617.2 live virus.
For data set [11] the following is noted: mouse, in vivo.
Data set [12] can be described thus: in vivo. The following applies: male, C57BL/6, mouse, inhaled or intranasal.
Data set [13] can be described thus: in vivo. The following applies: male, Syrian (Golden), hamster, inhaled or intranasal, 2.5 mg/kg, Nasal Tissue.
For data set [14], the system named is GFP-RSV live virus (RSV A2).
The mark [15] stands for this setting: 1 mg/kg, RQ-01 Nasal Tissue Concentration.
[16] abbreviates: 3 mg/kg, RQ-01 Nasal Tissue Concentration.
The mark [17] stands for this setting: 10 mg/kg, RQ-01 Nasal Tissue Concentration.

Usually EC50 stands for the concentration at which the effect is half-maximal. As usually defined, the IC50 is the midpoint of a concentration-inhibition curve. High values mean weaker potency, low ones greater potency.

The molecule `CC[C@H](C)[C@H](NC(=O)CNC(=O)[C@H](CO)NC(=O)[C@@H](NC(=O)[C@H](CC(=O)O)NC(C)=O)[C@@H](C)CC)C(=O)N[C@@H](CC(N)=O)C(=O)N[C@@H](C)C(=O)N[C@@H](CO)C(=O)N[C@H](C(=O)N[C@H](C(=O)N[C@@H](CC(N)=O)C(=O)N[C@H](C(=O)N[C@]1(C)CCCCCCC=CCCC[C@@](C)(C(=O)N[C@@H](CCC(=O)O)C(=O)N[C@H](C(=O)N[C@@H](C)C(=O)N[C@@H](CCCCN)C(=O)N[C@@H](CC(N)=O)C(=O)N[C@@H](CC(C)C)C(=O)N[C@@H](CC(N)=O)C(=O)N[C@@H](CCC(=O)O)C(=O)N[C@@H](CO)C(=O)N[C@@H](CC(C)C)C(=O)N[C@H](C(=O)N[C@@H](CC(=O)O)C(=O)N[C@@H](CC(C)C)C(=O)N[C@@H](CCC(N)=O)C(=O)N[C@@H](CCC(=O)O)C(=O)N[C@@H](CC(C)C)C(=O)NCC(=O)N[C@@H](CCCCNC(=O)CCOCCOCCOCCOCCOCCOCCOCCOCCNC(=O)CO[C@H]2CC[C@@]3(C)C(=CC[C@H]4[C@@H]5CC[C@H]([C@H](C)CCCC(C)C)[C@@]5(C)CC[C@@H]43)C2)C(N)=O)[C@@H](C)CC)C(C)C)NC(=O)[C@H](CC(C)C)NC(=O)[C@H](CCCNC(=N)N)NC(=O)[C@H](CC(=O)O)NC(=O)[C@H]([C@@H](C)CC)NC(=O)[C@H](CCC(=O)O)NC(=O)[C@H](CCCCN)NC1=O)[C@@H](C)CC)C(C)C)C(C)C` [RQ-01] came in with an EC50 in data set [1] of 1.9 nM. The “intact compound, % of initial levels” value in data set [2] (25 μM) is recorded as “fully preserved”. Further, in [2] (1 h), the “Percent Intact Peptide” value is 108.538% and 105.019% and 100.148% and 101.614%. Further, the “Percent Intact Peptide” value in data set [2] (12 h) was 100.519% and 101.487% and 97.3524% and 61.8294% and 103.036% and 91.5274% and 92.844% and 95.276%. Besides, in [3], the OP swab titer was 10-20 PFUs; the “lung histopathology (pneumonia global severity score, total lung score)” value was “significant protection from the pulmonary sequelae of SARS-CoV-2 infection”; the “viral shedding by OP swab” value was “significantly reduced”; the weight loss result is on record as “significant protective effect from weight loss; also recorded: protection from weight loss was also observed”. Also, in data set [4], the “OP swab titers (Day 3)” value is “A subset of hamsters from both RQ-01 treated cohorts exhibited reduced OP swab titers”, the lung viral titers entry is “suppression of lung viral titers”, the “transmission to sentinel hamsters” value was “did not prevent transmission” and the “weight loss of sentinels” value was “protection from weight loss”. The “elution by fast protein liquid chromatography” value in data set [5] is given as “eluted as a monodispersed peak”. For the same molecule, the circular dichroism analysis entry in data set [6] was “exhibited α-helical character”. In addition, the “fold by which RQ-01 outperformed SARSHRC-PEG4-chol” value (shortened to “fold”) in data set [7] worked out at 4.7 fold. In addition, in data set [8], the “fold” value turned out to be 23 fold. Also, the “improvement of antiviral activity compared to the unstapled peptide” value in [9] was in the range of 24 to 39 fold. For the same molecule, the “fold” value in data set [10] worked out at 5.4 fold. Further, in data set [11], the clinical observations result is recorded as “no adverse clinical findings”, the “nasal tissue exposure relative to IC90 value” was 100-2000 x IC90 and the “nasal tissue levels relative to infectivity assay IC90” value is given as “over 100”. Moreover, in [11] (pH 6.5), the “peak lung tissue concentration relative to nasal tissue” value is listed as “approximately 1/10th” and the “plasma exposure relative to nasal tissue” value is recorded as “approximately 1/1000th”. In data set [11] (pH 7.2), the “nasal tissue level by 48 h” value worked out at 1 µM and the peak lung level was 1 µM. Besides, in the data set on A549-ACE2 cells, the cytotoxicity entry was “no cytotoxicity”. Further, in the data set “in vivo [12]” (setting [15]), the level at time molar at 2 h came to 16.2 µM and the level at time molar at 4 h was found to be 22.5 µM. Further, the level at time molar at 7 h in “in vivo [12]” (1 mg/kg, RQ-01 Tissue Concentration) is 0.064 µM. This molecule also showed a level at time molar in the data set “in vivo [12]” (2 mg/kg, pH 7.2, nasal tissue level, start) of 10 µM. In “in vivo [12]” (setting [16]), this molecule had a level at time molar at 2 h of 27.5 µM, a level at time molar at 4 h of 28.1 µM, a level at time molar at 7 h of 26.4 µM and a level at time molar at 24 h of 18.7 µM. In the data set “in vivo [12]” (setting [17]), this molecule showed a level at time molar at 2 h of 73 µM, a level at time molar at 4 h of 44.9 µM, a level at time molar at 7 h of 59.6 µM and a level at time molar at 24 h of 25.4 µM. In the data set “in vivo [13]” (RQ-01 tissue concentration), the level at time molar at 4 h amounted to 23.2 µM. Moreover, the level at time molar at 4 h in “in vivo [13]” (pH 6.5, RQ-01 tissue concentration) amounted to 28.8 µM.
`CC[C@H](C)[C@H](NC(=O)[C@H](CO)NC(=O)[C@H](C)NC(=O)[C@H](CC(=O)O)NC(=O)[C@H](Cc1ccccc1)NC(C)=O)C(=O)N[C@@H](CO)C(=O)N[C@@H](CCC(N)=O)C(=O)N[C@H](C(=O)N[C@@H](CC(N)=O)C(=O)N[C@@H](CCC(=O)O)C(=O)N[C@@H](CCCCN)C(=O)N[C@H](C(=O)N[C@@H](CC(N)=O)C(=O)N[C@@H](CCC(N)=O)C(=O)N[C@@H](CO)C(=O)N[C@@H](CC(C)C)C(=O)N[C@]1(C)CCCCCCC=CCCC[C@@](C)(C(=O)N[C@@H](CC(C)C)C(=O)N[C@@H](CC(C)C)C(=O)N[C@@H](Cc2c[nH]cn2)C(=O)N[C@@H](CC(N)=O)C(=O)N[C@H](C(=O)N[C@@H](CCCCNC(=O)CCOCCOCCOCCOCCOCCOCCOCCOCCOCCOCCOCCOCCOCCOCCOCCOCCNC(=O)CS[C@H]2CC[C@@]3(C)C(=CC[C@H]4[C@@H]5CC[C@H]([C@H](C)CCCC(C)C)[C@@]5(C)CC[C@@H]43)C2)C(N)=O)C(C)C)NC(=O)[C@H](CC(=O)O)NC(=O)[C@H](CO)NC(=O)[C@H](CCCCN)NC(=O)[C@H](CCCNC(=N)N)NC(=O)[C@H]([C@@H](C)CC)NC(=O)[C@H](Cc2ccccc2)NC1=O)[C@@H](C)CC)C(C)C` [SLI-RSV] (Ac-FDASISQVNEKINQSL[R8]FIRKSD[S5]LLHNVK([PEG16-Acetyl(2-S-cholesteryl)])-NH2; staple 17-24) registered an IC50 in data set [14] of 58 nM. For the same molecule, the cytotoxicity entry in the data set on A549 cells was “no cytotoxicity”.
